Source: paper PMC8112869, “Therapeutic inhibition of keratinocyte TRPV3 sensory channel by local anesthetic dyclonine” (eLife, 2021)

Assays:
mouse TRPV3 = molecular target: T1, mouse TRPV3 (Mus musculus, UniProt Q8K424); assay: Voltage-step whole-cell recording of TRPV3 currents (40 μM 2-APB) in HEK 293T cells; assay type: cell-based; set-up: expressed in transfected cells; host or cells: HEK 293T; settings: steps –160 to +180 mV, dyclonine 10, 30 μM, RR 10 μM
T1 sequence (Q8K424 1-791): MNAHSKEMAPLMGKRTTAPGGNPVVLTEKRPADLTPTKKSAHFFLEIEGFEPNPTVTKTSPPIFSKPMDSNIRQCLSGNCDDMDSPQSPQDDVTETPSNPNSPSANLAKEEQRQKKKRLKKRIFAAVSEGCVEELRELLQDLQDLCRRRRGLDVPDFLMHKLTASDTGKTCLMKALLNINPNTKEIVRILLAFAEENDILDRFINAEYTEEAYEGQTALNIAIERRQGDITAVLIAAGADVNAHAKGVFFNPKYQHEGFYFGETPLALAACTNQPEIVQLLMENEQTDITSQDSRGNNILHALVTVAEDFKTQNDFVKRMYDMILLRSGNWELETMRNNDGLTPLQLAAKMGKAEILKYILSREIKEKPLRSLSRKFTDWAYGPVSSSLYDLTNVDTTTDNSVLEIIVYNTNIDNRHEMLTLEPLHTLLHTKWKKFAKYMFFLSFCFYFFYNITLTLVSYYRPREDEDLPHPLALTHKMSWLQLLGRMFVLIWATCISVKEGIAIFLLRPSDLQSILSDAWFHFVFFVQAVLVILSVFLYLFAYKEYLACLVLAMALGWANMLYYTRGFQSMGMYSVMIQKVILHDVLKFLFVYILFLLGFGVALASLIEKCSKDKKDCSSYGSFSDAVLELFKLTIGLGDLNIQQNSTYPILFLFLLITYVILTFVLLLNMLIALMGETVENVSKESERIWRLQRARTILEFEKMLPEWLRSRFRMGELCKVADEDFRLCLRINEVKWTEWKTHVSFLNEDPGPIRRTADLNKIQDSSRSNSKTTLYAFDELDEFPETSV
Text: Conventional whole-cell and excised patch-clamp recording methods were used. For the recombinant expressing system, green fluorescent EGFP was used as a surface marker for gene expression. Recording pipettes were pulled from borosilicate glass capillaries (World Precision Instruments) and fire-polished to a resistance between 2 and 4 MΩ when filled with internal solution containing (in mM) 140 CsCl, 2.0 MgCl2, 5 EGTA, and 10 HEPES, pH 7.4 (adjusted with CsOH). Bath solution contained (in mM): 140 NaCl, 5 KCl, 3 EGTA, and 10 HEPES, pH 7.4 adjusted with NaOH. For recordings in keratinocytes, the bath saline consisted of (in mM) 140 NaCl, 5 KCl, 2 MgCl2, 2 CaCl2, 10 glucoses, and 10 HEPES, pH 7.4 adjusted with NaOH, and the pipette solution contained (in mM) 140 CsCl, 5 EGTA, and 10 HEPES, pH 7.3 adjusted with CsOH. […] For a subset of recordings, currents were amplified using an Axopatch 200B amplifier (Molecular Devices, Sunnyvale, CA) and recorded through a BNC-2090/MIO acquisition system (National Instruments, Austin, TX) using QStudio developed by Dr. Feng Qin at State University of New York at Buffalo. […] As determined by the conductance tests, the solution around a patch under study was fully controlled by the application of a flow rate of 100 μl/min or greater. […]

C57B/6 mice = assay: Carvacrol-induced itch-scratching behavior in mice; assay type: in vivo, mouse
Procedure: To assess itch-scratching behaviors, the hair of the rostral part of the mouse’s right neck was shaved using an electric hair clipper 24 hr before the start of experiments. Trpv3^-/- mice have been described previously ([Wang et al., 2021]). Scratching behaviors were recorded on video. The number of itch-scratching bouts was counted through video playback analysis. One scratching bout was defined as an episode in which a mouse lifted its right hind limb to the injection site and scratched continuously for any time length until this limb was returned to the floor or mouth ([Wilson et al., 2013]). All behavioral experiments were conducted in a double-blind manner. […] [Sun and Dong, 2016]).

SMILES | effect on TRPV3-mediated inward and outward currents (voltage dependence) (mouse TRPV3) | change in the number of scratching bouts (C57B/6 mice; TRPV3-/- mice, intradermal carvacrol 0.1%, 50 μl) | accumulated scratching bouts over 30 min (C57B/6 mice; WT TRPV3 mice, intradermal carvacrol 0.1%, 50 μl) | scratching bouts over 30 min (C57B/6 mice; carvacrol (0.1%, 50 μl) with pretreatment of normal saline)
N.N.N.N.N.N.N.N.N.N.N.N.N.N.[Cl-].[Cl-].[Cl-].[Cl-].[Cl-].[Cl-].[O-2].[O-2].[Ru+3].[Ru+3].[Ru+4] [RR, ruthenium red] | only inhibited TRPV3-mediated inward currents but enhanced outward currents |  |  | 
Cc1ccc(C(C)C)cc1O [carvacrol] |  | did not elicit a remarkable change | 137.2 ± 33.9 | 137.8 ± 18.3
